Measurements published in the supplement of paper PMC11208160.

Assay: recombinant UMI read abundance after kanamycin selection (control-corrected) (log10(CPM+1)); higher = more efficient recombination; extreme values may be limits of the assay; sequences stand for … in AGTGCAGAGAAAATCGGCCAGTTTTCTCTGCCTGCAGTCCGCATGCCGTGGGACCCCTTGGGTTCTAACCTGTTGCCTAGATTTATGCAGCGGACTGCCTTTCTCCCAAAGTGATAAACCGG…AGGTTGGTTTCACT; site = the 11-nt donor
Summary of the method: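 In a pooled Escherichia coli screen for the IS621 bridge recombinase, donor and donor-binding-loop pairs were each placed with a 12-nt UMI on a plasmid bearing a promoterless kanamycin gene. This library was co-electroporated with a target plasmid encoding a fixed target and T7-inducible recombinase, and cells were plated either on IPTG (0.07 mM) plus kanamycin or without selection, in two replicates each. Recombinant UMIs were PCR-amplified across the donor–target junction and sequenced, and counts were converted to CPM, averaged over replicates, scaled by control-derived factors and reported as log10(CPM+1).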
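Note: IS621 bridge recombinase in Escherichia coli cells against a fixed T5 target plasmid.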

Sequence	recombinant UMI read abundance (log10)
TCATGCCCATGGACCGGTTTTCCCGGTAATCCGTATTTGGC (site TCATGCCCTGC)	0
TCATTATCATGGACCGGTTTTCCCGGTAATCCGTATTTGCA (site TCATTATCTTG)	1.7
TCATTCTCATGGACCGGTTTTCCCGGTAATCCGTATTTGCT (site TCATTCTCTAG)	0.981
TCATTGCCATGGACCGGTTTTCCCGGTAATCCGTATTTGAG (site TCATTGCCTCT)	0.00408
TCATTTACATGGACCGGTTTTCCCGGTAATCCGTATTTGGA (site TCATTTACTTC)	0.164
TCCAATACATGGACCGGTTTTCCCGGTAATCCGTATTTGCC (site TCCAATACTGG)	0
TCCAATACATGGACCGGTTTTCCCGGTAATCCGTATTTGCC (site TCCAATCCTGG)	0
TCCAATACATGGACCGGTTTTCCCGGTAATCCGTATTTGCC (site TCCAATGCTGG)	0
TCCAATACATGGACCGGTTTTCCCGGTAATCCGTATTTGCC (site TCCAATTCTGG)	0
TCCAATCCATGGACCGGTTTTCCCGGTAATCCGTATTTGCC (site TCCAATACTGG)	0
TCCAATCCATGGACCGGTTTTCCCGGTAATCCGTATTTGCC (site TCCAATCCTGG)	0
TCCAATCCATGGACCGGTTTTCCCGGTAATCCGTATTTGCC (site TCCAATGCTGG)	0
TCCAATCCATGGACCGGTTTTCCCGGTAATCCGTATTTGCC (site TCCAATTCTGG)	0
TCCAATTCATGGACCGGTTTTCCCGGTAATCCGTATTTGGC (site TCCAATTCTGA)	0
TCCAATTCATGGACCGGTTTTCCCGGTAATCCGTATTTGGC (site TCCAATTCTGC)	0
TCCAATTCATGGACCGGTTTTCCCGGTAATCCGTATTTGGC (site TCCAATTCTGG)	0
TCCAATTCATGGACCGGTTTTCCCGGTAATCCGTATTTGGC (site TCCAATTCTGT)	0
TCCACCGCATGGACCGGTTTTCCCGGTAATCCGTATTTGCT (site TCCACCGCTAG)	0
TCCACCGCATGGACCGGTTTTCCCGGTAATCCGTATTTGCT (site TCCACCGCTCG)	0.0171

Sequence	recombinant UMI read abundance (log10)
TCCACCGCATGGACCGGTTTTCCCGGTAATCCGTATTTGCT (site TCCACCGCTGG)	0
TCCACCGCATGGACCGGTTTTCCCGGTAATCCGTATTTGCT (site TCCACCGCTTG)	0
TCCACGCCATGGACCGGTTTTCCCGGTAATCCGTATTTGCC (site TCCACGCCTGG)	0
TCCACTTCATGGACCGGTTTTCCCGGTAATCCGTATTTGAG (site TCCACTTCTCT)	0.0133
TCCAGTGCATGGACCGGTTTTCCCGGTAATCCGTATTTGGT (site TCCAGTGCTAC)	0.00561
TCCATAGCATGGACCGGTTTTCCCGGTAATCCGTATTTGTA (site TCCATAGCTTA)	0.0478
TCCATTTCATGGACCGGTTTTCCCGGTAATCCGTATTTGCC (site TCCAATTCTGG)	0
TCCATTTCATGGACCGGTTTTCCCGGTAATCCGTATTTGCC (site TCCACTTCTGG)	0
TCCATTTCATGGACCGGTTTTCCCGGTAATCCGTATTTGCC (site TCCAGTTCTGG)	0
TCCCAATCATGGACCGGTTTTCCCGGTAATCCGTATTTGTG (site TCCCAATCTCA)	0.00796
TCCCACCCATGGACCGGTTTTCCCGGTAATCCGTATTTGAG (site TCCCACCCTCT)	0.00907
TCCCATCCATGGACCGGTTTTCCCGGTAATCCGTATTTGGC (site TCCCATCCTGC)	0
TCCCCAACATGGACCGGTTTTCCCGGTAATCCGTATTTGTC (site TCCCCAACTGA)	0
TCCCCTGCATGGACCGGTTTTCCCGGTAATCCGTATTTGAT (site TCCCCTGCTAT)	0.00458
TCCCGACCATGGACCGGTTTTCCCGGTAATCCGTATTTGAG (site TCCCGACCTCT)	0.00764
TCCCGGACATGGACCGGTTTTCCCGGTAATCCGTATTTGTC (site TCCCGGACTGA)	0.905
TCCCGTTCATGGACCGGTTTTCCCGGTAATCCGTATTTGAA (site TCCCGTTCTTT)	0
TCCCTACCATGGACCGGTTTTCCCGGTAATCCGTATTTGAT (site TCCCTACCTAT)	0
